Assay results from patent US20070099863A1, “Compounds for the treatment of demyelinating and autoimmune diseases” (priority 2003, published 2007).
Where a name gives a salt, the structure may show the parent alone.

How the values were obtained:
[1] = system: P2X receptors in oligodendrocytes; assay: Cytosolic calcium levels (Fura-2) in oligodendrocyte cultures; assay type: cell-based, rat; conditions: for promotion of the increase of [Ca2+]i generated by ATP: propofol 60 μM
Description: (§1) The cell cultures were carried out from the optic nerve of the perinatal rat (P12) following established protocols, which were adapted and introduced into the laboratory according to a recent description (Matute et al, 1997, Proc. Natl. Acad. Sci. USA 94, 8830-8835).
The concentration of cytosol calcium was determined by the method of Grynkiewikcz et al (1985; J. Biol. Chem. 260, 3440-3450). The oligodendrocytes were loaded with […] of Fura-2/AM, and they were then washed and studied in a Zeiss inverted microscope equipped with a monochromator, 40× immersion objective, an Orca high resolution digital camera, and AquaCosmos software (Hamamatsu Photonics). The changes in cytosol calcium levels in response to agonists and antagonists, in the presence and absence of extracellular calcium, were studied. The calibration was performed at the end of the studies by means of the successive application of ionomycin and EGTA, and the calcium concentration was estimated using the measurement of the 340/380 nm ratio.

[2] = system: oligodendrocytes of isolated optic nerve; assay: Isolated optic nerve perfusion, oligodendrocyte damage in situ; parameters: species or system rat
Description: Next, they were incubated with purinergic agonists and antagonists for different times. Later, the nerves were perfused for 1 to 24 hours with normal aCSF saturated with oxygen. After this time passed the damage was evaluated histologically as we have described in vivo (Matute, 1998, Proc. Natl. Acad. Sci. USA 95: 10229-10234), and the biochemical changes which are underlying to this damage were analysed.
To determine if ATP is toxic to the oligodendrocytes in a preparation of nerve tissue without dissociating, entire optic nerves isolated from adult rats were perfused with artificial cerebrospinal fluid with ATP (100 μM) for 3 h. […] The damaged cells are located in the longitudinal axis of the nerve and make up part of interfascicular oligodendrocyte rows.

EAE in Lewis rats = assay: Acute EAE induced with basic myelin protein; assay type: in vivo, rat; conditions: 7 to 14 days post-injection
oligodendrocytes = assay: Oligodendroglial death in culture; assay type: cell-based, rat; conditions: for toxicity of purinergic agonists for oligodendrocytes: culture
Description: as §1, with “Death is calcium dependent, since its elimination from the culture media leads to it not being caused. […] The” for “The”

[3] = system: P2X receptors in oligodendrocytes; assay: Whole-cell patch-clamp recordings in cultured oligodendrocytes; assay type: cell-based, rat; conditions: for induction of input current by agonist: agonist 100 μM; for EC50: cultured oligodendrocytes, whole-cell patch-clamp, read-out: EC50 of amplitude of currents generated by agonist
Description: as §1
The electrophysiological recordings were carried out in 2 to 5 day cultures, and according to the guidelines indicated in previous works (Patneau et al 1994, Neuron 12: 357-371). The cells were recorded in a chamber which allowed the composition of the extracellular medium to vary by means of a constant flow (0.5-1 mL/min). The recording electrodes were glass capillaries which contained specific solutions compatible with the cytoplasm ion concentrations. The study of the responses mediated by the purinergic receptors was carried out using the “whole-cell patch-clamp” technique, measuring the currents generated by the external application of selective agonists and antagonists of the aforementioned receptors.

P2X1 = target: T1, P2X1 (Homo sapiens, UniProt P51575); conditions: P2X1 subtype; read-out: IC50 in relation to P2X1; cited from earlier work
T1 sequence (P51575 1-399): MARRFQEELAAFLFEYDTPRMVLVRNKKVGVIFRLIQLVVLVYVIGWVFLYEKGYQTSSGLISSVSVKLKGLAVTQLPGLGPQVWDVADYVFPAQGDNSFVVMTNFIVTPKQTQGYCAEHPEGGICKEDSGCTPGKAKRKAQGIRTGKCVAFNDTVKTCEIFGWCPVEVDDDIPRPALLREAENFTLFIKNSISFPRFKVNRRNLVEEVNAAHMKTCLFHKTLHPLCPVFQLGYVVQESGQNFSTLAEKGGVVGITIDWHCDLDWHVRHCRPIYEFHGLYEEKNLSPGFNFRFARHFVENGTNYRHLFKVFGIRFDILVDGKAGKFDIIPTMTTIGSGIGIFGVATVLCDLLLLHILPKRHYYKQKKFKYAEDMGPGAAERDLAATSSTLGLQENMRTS

P2X3 = target: T2, P2X3 (Homo sapiens, UniProt P56373); conditions: P2X3 subtype; read-out: IC50 in relation to P2X3; cited from earlier work
T2 sequence (P56373 1-397): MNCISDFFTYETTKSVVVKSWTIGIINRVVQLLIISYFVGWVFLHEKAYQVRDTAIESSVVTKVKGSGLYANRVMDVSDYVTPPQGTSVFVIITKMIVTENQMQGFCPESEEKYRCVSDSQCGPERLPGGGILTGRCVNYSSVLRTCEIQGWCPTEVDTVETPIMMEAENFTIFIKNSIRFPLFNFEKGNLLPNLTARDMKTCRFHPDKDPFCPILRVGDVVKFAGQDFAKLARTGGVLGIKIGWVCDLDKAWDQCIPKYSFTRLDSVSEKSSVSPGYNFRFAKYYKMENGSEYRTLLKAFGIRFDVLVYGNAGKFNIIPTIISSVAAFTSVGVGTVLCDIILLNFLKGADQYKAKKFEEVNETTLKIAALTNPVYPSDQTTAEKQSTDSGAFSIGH

P2X7 receptors = assay: P2X7 receptor levels in lumbar-sacral spinal cord of EAE animals (Western blot); assay type: in vivo, rat; conditions: EAE animals treated with o-ATP; untreated EAE reduced by half
EAE in DA rats = assay: Chronic-recurrent-remittent EAE model; assay type: in vivo, rat; conditions: o-ATP 2.5 mg/kg every 12 h, from maximum intensity of symptoms
Description: Later, the efficacy of o-ATP in improving the symptoms of EAE was evaluated in a chronic-recurrent-remittent model. For this, DA rats were immunised with syngeneic spinal cord, the appearance of severe neurological deficits being observed 7-9 days post-injection, and which reached their first peak around 11 days.

P2X4 = target: T3, P2X4 (Homo sapiens, UniProt Q99571); conditions: P2X4 subtype; read-out: IC50 in relation to P2X4; cited from earlier work
T3 sequence (Q99571 1-388): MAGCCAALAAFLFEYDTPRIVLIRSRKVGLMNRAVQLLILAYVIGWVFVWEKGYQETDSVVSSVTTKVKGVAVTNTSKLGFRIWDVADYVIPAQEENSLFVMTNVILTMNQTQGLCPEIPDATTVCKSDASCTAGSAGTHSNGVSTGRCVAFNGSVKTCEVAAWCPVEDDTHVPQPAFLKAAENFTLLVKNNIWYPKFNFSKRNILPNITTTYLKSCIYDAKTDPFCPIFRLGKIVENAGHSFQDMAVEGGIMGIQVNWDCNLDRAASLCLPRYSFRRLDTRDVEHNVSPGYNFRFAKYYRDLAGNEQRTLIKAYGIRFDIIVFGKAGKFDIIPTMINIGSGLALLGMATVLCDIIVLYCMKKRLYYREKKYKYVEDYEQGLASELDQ

optic nerve = assay: Infusion of agonists over the optic nerve in vivo (osmotic pumps); parameters: species or system rabbit; conditions: infused 3 days by osmotic pumps, examined 7 days after start
Description: The experiments on the optic nerve were carried out in rabbits (New Zealand White) which, due to their size, enable better manipulation in experimental surgery. The procedure used was that described previously (Matute, 1998, Proc. Natl. Acad. Sci. 95, 10229-10234). The purinergic agonists were applied using osmotic micropumps which released small quantities of solute for a determined time. Later, the effect of this application on the nerve was evaluated by means of a panel of oligodendrocyte markers and their progenitors, myelin, axonal integrity, astrogliosis y microgliosis.
Next, the ATP-γ-S and BzATP agonists were infused over the optic nerve using osmotic pumps which released very small quantities of solute for 3 days. […] Also, this zone had intense gliosis, lack of myelin and axonal damage (FIG. 6).

For `Cc1nc(N=Nc2ccc(S(=O)(=O)O)cc2S(=O)(=O)O)c(COP(=O)(O)O)c(C=O)c1O` [PPADS, tetrasodium salt of pyridoxalphosphate-6-azophenyl-2′,4′-disulfonic acid], the “effect on Ca2+ entrance induced by Bz-ATP” value ([1]; PPADS) was “blocked”, the “effect on [Ca2+]i response to ATP” value ([1]; PPADS 50 μM, ATP 10 μM) was “repressed” and the “effect on ATP-induced oligodendrocyte death in isolated optic nerve” value ([2]; PPADS 10 μM with ATP) was “prevents the death of the oligodendrocytes”. The “effect on symptoms and course of acute EAE” value (EAE in Lewis rats; PPADS 30 mg/kg two times per day) was “did not improve the symptoms or the course of the disease”, the “effect on ATP-induced oligodendrocyte death” value (oligodendrocytes; PPADS 50 μM) was “inhibited” and the “effect on currents induced by ATP” value ([3]; PPADS 100 μM) was “completely blocked”.
With `CC(C)c1cccc(C(C)C)c1O` [propofol] the “promotion of the increase of [Ca2+]i generated by ATP” value ([1]; 0.1 mM ATP) was 60%±22, the “promotion of the increase of [Ca2+]i generated by ATP” value ([1]; 1 mM ATP) was 77%±34 and the “effect on ATP currents” value ([3]; propofol 60 μM) was “does not alter these currents”.
In the case of `O=c1[nH]cnc2c1ncn2C1OC(COP(=O)(O)OP(=O)(O)OP(=O)(O)OP(=O)(O)OP(=O)(O)OCC2OC(n3cnc4c(=O)[nH]cnc43)C(O)C2O)C(O)C1O` (centres unmarked) [Ip5I, pentapotassium salt of P^1,P^5-Diinosine-5-pentaphosphate], the IC50 (P2X1) is listed as 0.003 µM and the IC50 (P2X3) is listed as 3 µM.
In the case of `Nc1ncnc2c1ncn2[C@@H](C=O)O[C@@H](C=O)COP(=O)(O)OP(=O)(O)OP(=O)(O)O` [o-ATP, sodium salt of Adenosine 5-triphosphate, oxidised with periodate], the “levels of P2X7 receptors in lumbar-sacral spinal cord” value (P2X7 receptors) is reported as “returned to those of the controls”, the “effect on symptoms of chronic-recurrent-remittent EAE” value (EAE in DA rats) is reported as “reduced the symptoms and also eliminated those common to the chronic phase” and the “reduction of the increase in [Ca2+]i induced by Bz-ATP” value ([1]; o-ATP 1 mM) is reported as 63±8. For the same molecule, the “effect on symptoms of acute EAE” value (EAE in Lewis rats; o-ATP 1 and 5 mg/kg every 12 h) was “reduced or prevented the appearance of symptoms”, the “effect on oligodendroglial death due to ATP” value (oligodendrocytes; o-ATP (FIG. 4)) was “can be prevented” and the “effect on ATP currents” value ([3]; o-ATP, concentration not given) was “partially blocks”.
For `O=C(Nc1ccc(C(=O)Nc2ccc(C(=O)Nc3ccc(S(=O)(=O)O)c4cc(S(=O)(=O)O)cc(S(=O)(=O)O)c34)cc2)cc1)Nc1ccc(C(=O)Nc2ccc(C(=O)Nc3ccc(S(=O)(=O)O)c4cc(S(=O)(=O)O)cc(S(=O)(=O)O)c34)cc2)cc1` [NF279], the IC50 (P2X1) is given as 0.02 µM and the IC50 (P2X4) is given as > 30 µM.
With `[Cu+2]` [Cu^2+] the “effect on ATP currents” value ([3]; Cu2+ 1 mM) was “reduces ATP currents”.
With `Nc1ncnc2c1ncn2[C@@H]1O[C@H](COP(=O)(O)CP(=O)(O)OP(=O)(O)O)[C@@H](O)[C@H]1O` [α,β-Me-ATP, α,β-methylene-ATP] the “toxicity of purinergic agonists for oligodendrocytes” value (shortened to “toxicity of purinergic agonists”) (oligodendrocytes) was “toxic” and the “induction of input current by agonist” value [3] was “did not generate currents”.
For 2′,3′-O-(4-benzoyl-4-benzoyl) [BzATP], the “entrance of Ca2+ into oligodendrocytes” value ([1]; Bz-ATP 0.01-1 mM) was “activates the entrance of Ca^2+ into oligodendrocytes in a dose dependent way”, the “histological examination of optic nerve after agonist infusion” value (optic nerve) was “tissue damage” and the “toxicity of purinergic agonists” value (oligodendrocytes) was “toxicity similar to ATP”. For the same molecule, the “induction of input current by agonist” value [3] was “induced similar responses” and the EC50 [3] was 520 µM.
In the case of `O=C(Nc1cccc(C(=O)Nc2ccc(S(=O)(=O)O)c3cc(S(=O)(=O)O)cc(S(=O)(=O)O)c23)c1)Nc1cccc(C(=O)Nc2ccc(S(=O)(=O)O)c3cc(S(=O)(=O)O)cc(S(=O)(=O)O)c23)c1` [NF023, hexasodium salt of 8,8′-[carbonylbis[imino-3,1-phenylenecarbonylimino]bis-1,3,5-naphthalenetrisulfonic acid]], the IC50 (P2X3) is given as 29 µM.
For `Nc1ncnc2c1ncn2[C@@H]1O[C@H](COP(=O)(O)OP(=O)(O)OP(O)(O)=S)[C@@H](O)[C@H]1O` [ATP-γ-S], the “histological examination of optic nerve after agonist infusion” value (optic nerve) was “tissue damage” and the “toxicity of purinergic agonists” value (oligodendrocytes) was “toxic”.
For `Nc1ncnc2c1ncn2[C@@H]1O[C@H](COP(=O)(O)OP(=O)(O)OP(=O)(O)O)[C@@H](O)[C@H]1O` [ATP], the “cytosol [Ca2+]i after agonist” value ([1]; ATP 10 μM, basal 250±65 nM) was 1200 ± 468 nM, the “increase in number of cells with nuclear condensation vs control nerves” value ([2]; ATP 100 μM for 3 h, isolated adult rat optic nerve) was > 3 times and the death of oligodendrocytes (oligodendrocytes; ATP 0.01-1 mM, all concentrations tested) was 15-27%. For the same molecule, the “oligodendrocytes showing non-desensitising input current” value ([3]; ATP 1 mM, n=47) was 77.3%±7.9 and the EC50 [3] was 8770 µM.
